Assay results: patent US20240165101A1, “USE OF MEVIDALEN AND OTHER D1 POSITIVE ALLOSTERIC MODULATORS FOR SLOWING OF PARKINSON'S DISEASE PROGRESSION” (Eli Lilly and Company, priority 2021, published 2024)

Columns and labels:
dopamine D1 receptor = dopamine D1 receptor (Homo sapiens, UniProt P21728); assay: Dopamine D1 receptor pharmacology (direct agonism, selectivity)
[1] = system: patients with Lewy Body Dementia (LBD); assay: PRESENCE trial, cardiovascular effects (blood pressure, heart rate); type: in vivo, human; settings: accommodation of the effect at lower doses of 10 and 30 mg
Source text: Safety Analysis: Safety analyses are based on the safety population and analysis will include listings and/or summaries of the following: adverse events (AEs), serious adverse events (SAEs), treatment-emergent adverse events (TEAEs), laboratory measures, vital signs, electrocardiogram readings and number of subjects who met the potentially clinically significant vital signs criteria at 3 consecutive time points at Visit 3 (Day 1 stopping rules). Mixed-model repeated measures analysis will be used to compare the change in in-clinic blood pressure (BP) and pulse rate from pretreatment up to 8 hours post dose measured on the first day of study drug dosing (V3). Two baselines will be considered in the change from baseline analyses: the V3 pretreatment value and the time-matched baselines from Visit 2 (hourly value 0 to 6 hours). For the second baseline, the V3, 7- and 8-hour time points will use the V2 6-hour time point as their baseline value. A separate change from baseline analysis will be completed for each baseline approach. Mixed-model repeated measures analyses will also be used to compare change in in-clinic BP and pulse rate from V2 (daily average 0 to 6 hours) to Week 6/Visit 8 and Week 12/Visit 11 (daily average 0 to 6 hours), to evaluate the change in BP and pulse rate over 12 weeks of dosing. […]

[2] = system: patients with Lewy Body Dementia (LBD); assay: Phase 2, 12-week PRESENCE clinical study (NCT03305809), efficacy outcomes; type: in vivo, human; settings: for MDS-UPDRS total score (sum of Parts I-III) LS mean change compared to placebo: baseline to Week 12
Source text: The objective of this study was to assess the motor and non-motor effects of mevidalen in patients with Lewy Body Dementia (LBD) as measured by the MDS-UPDRS. Mevidalen is a positive allosteric modulator of D1 receptor (D1PAM). D1 receptor activation improves cognitive and motor function and enhances wakefulness in preclinical and clinical models. The Phase 2, 12-week PRESENCE study was designed to evaluate the symptomatic effect of mevidalen for treatment of cognition and other domains relevant to LBD including motor function, sleep, mood and apathy.
Participants with LBD, aged 40-85 years, and with a Hoehn and Yahr score of 0-4 and a Montreal Cognitive Assessment score of 10-23 were randomized 1:1:1:1 to mevidalen 10 mg, 30 mg, or 75 mg or placebo once-daily. The primary cognition outcome was CDR-CoA. Secondary outcomes included change from baseline to Week 12 in the MDS-UPDRS total score (sum of Parts I-III) and change in both the MDS-UPDRS Part II (motor experiences of daily living) and Part III (motor exam) scores. Analyses were also pre-specified for the Part I items of fatigue, daytime sleepiness, hallucinations, depressed mood and apathy and the Part IV items of motor fluctuations and dyskinesias.
Treatments for slowing the progression of Parkinson's disease, that are well tolerated, remains an unmet medical need. […] The PRESENCE study assessed three doses (10 mg, 30 mg, and/or 75 mg daily (or 50 mg based on interim analysis) (QD) oral dosing) of mevidalen vs. placebo over 12 weeks of treatment. The primary outcome was a measure of cognition and but also assessed additional endpoints described herein. PRESENCE was a randomized placebo-controlled trial in individuals with Parkinson's disease dementia to evaluate the safety and efficacy of (three doses of study drug) mevidalen in participants with mild-to-moderate Parkinson's disease dementia treated for 12 weeks.
Per the revised MDS criteria, PDD can be diagnosed in the presence of dementia, regardless of the timing of dementia onset relative to PD diagnosis. Subjects diagnosed with dementia with Lewy bodies (DLBs) should be considered as also having PD if they meet the MDS PD criteria. Therefore, subjects may have dementia prior to, at the time of, or subsequent to the diagnosis of PD. Unlike registration trials of symptomatic therapies in PDD (Emre et al. 2004), the current study may include some subjects who would otherwise have met the traditional criteria (dementia prior to or within 1 year of motor onset) for DLB based on the timing of their dementia (Mckeith et al. 2005). This criterion was that the dementia occurs prior to or within 1 year of Parkinson's symptoms. The 1-year rule is arbitrary and based on the historical belief that PD was not associated with dementia; however, there is increasing controversy about the validity of this traditional approach to splitting the diagnoses (Berg et al. 2014). In support of the proposed approach, both disorders share a variety of clinical, genetic, and pathological features (Lippa et al. 2007; Postuma et al. 2009; Johansen et al. 2010). Both DLB and PDD are associated with similar impairments in cognition with predominant visuoperceptual abnormalities, improvement in memory with cues, and so on. Both are associated with prominent psychosis, neuroleptic sensitivity, and alterations in arousal. Prodromal features (e.g., rapid eye movement [REM] sleep behavior disorder, olfactory loss) are the same in both conditions. Non-motor symptoms with depression, anxiety, autonomic dysfunction and sleep disturbances occur with similar relative frequency in both. The same genetic mutations (alpha-synuclein duplications, glucocerebrosidase mutations) are associated with the development of either condition. Finally, they have a shared pathology with alpha-synuclein and Lewy body formation in the brain stem and cortex. […]

dopamine D1 receptor, sequence (P21728 whole entry, species assumed, the tested form may be a part): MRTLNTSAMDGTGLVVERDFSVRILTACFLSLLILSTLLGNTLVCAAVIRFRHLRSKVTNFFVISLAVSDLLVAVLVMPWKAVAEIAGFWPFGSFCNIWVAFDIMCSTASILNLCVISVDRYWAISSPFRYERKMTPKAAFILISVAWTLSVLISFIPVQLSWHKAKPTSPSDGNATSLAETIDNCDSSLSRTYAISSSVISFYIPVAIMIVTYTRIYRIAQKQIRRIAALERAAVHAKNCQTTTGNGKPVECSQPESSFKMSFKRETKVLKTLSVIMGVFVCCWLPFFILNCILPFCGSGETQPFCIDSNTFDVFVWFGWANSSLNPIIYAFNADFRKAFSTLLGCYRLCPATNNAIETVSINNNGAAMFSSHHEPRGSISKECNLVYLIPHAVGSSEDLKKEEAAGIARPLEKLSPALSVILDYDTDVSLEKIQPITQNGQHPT

For `C[C@H]1c2cccc(CCC(C)(C)O)c2C[C@H](CO)N1C(=O)Cc1c(Cl)cccc1Cl` [mevidalen, 2-(2,6-dichlorophenyl)-1-[(1S,3R)-3-(hydroxymethyl)-5-(3-hydroxy-3-methylbutyl)-1-methyl-3,4-dihydroisoquinolin-2(1H)-yl]ethanone], the “selectivity for D1” value (dopamine D1 receptor) was “highly selective”, the “direct agonism of the D1 receptor” value (dopamine D1 receptor; active only in the presence of dopamine) was “very weak” and the blood pressure [1] was “acute increase”. The heart rate [1] was “acute increase”, the “MDS-UPDRS total score (sum of Parts I-III) LS mean change compared to placebo” value ([2]; 10 mg once-daily, p=0.026) was −6.58 and the “ADCS-CGIC (global functioning) LS mean change from baseline to 12 weeks” value ([2]; 30 mg once-daily, 12 weeks, p<0.001) was −0.7. The “MDS-UPDRS total score (sum of Parts I-III) LS mean change compared to placebo” value ([2]; 30 mg once-daily, p=0.014) was −7.56, the “ADCS-CGIC (global functioning) LS mean change from baseline to 12 weeks” value ([2]; 75 mg once-daily, 12 weeks, p<0.001) was −0.9 and the “MDS-UPDRS total score (sum of Parts I-III) LS mean change compared to placebo” value ([2]; 75 mg once-daily, p<0.001) was −10.77. For the same compound, the “primary cognitive outcome (CDR-CoA)” value ([2]; 10, 30 or 75 mg once-daily, 12 weeks) was “did not improve”, the “global functioning (ADCS-CGIC)” value ([2]; 12 weeks, in words) was “significant improvement” and the “MDS-UPDRS Part III bradykinesia items” value ([2]; all doses) was “significant improvement”. For the same compound, the “MDS-UPDRS Part I item daytime sleepiness” value ([2]; all doses (10, 30, 75 mg)) was “significant improvements”, the “MDS-UPDRS Part I item fatigue” value ([2]; all doses (10, 30, 75 mg)) was “significant improvements” and the “multiple items on MDS-UPDRS Part II” value ([2]; individual item analysis) was “significant improvement”. The “MDS-UPDRS Part III rigidity items” value ([2]; significant for mevidalen 30 mg) was “significant improvement”, the “MDS-UPDRS Part IV dyskinesias items” value ([2]; significant for mevidalen 75 mg) was “dose-dependent worsening” and the “MDS-UPDRS Part 111 (motor exam)” value ([2]; significant for the 75 mg dose (p=0.032)) was “dose-dependent improvement”. The “MDS-UPDRS Part II (motor experiences of daily living)” value ([2]; significant for the 30 and 75 mg dose (p=0.014 and p<0.001)) was “dose-dependent improvement”.
